Where “and” joins values, the source holds several entries; their conditions need not be identical. Identical values can stand only once.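 Cultured in 96-well plates, cells were exposed to test compound for 48 hours across five concentrations. Abbreviation: GI50, concentration required for 50% inhibition of growth. TGI: total growth inhibition.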
Columns and labels:
Assay in all cases: NCI-60 cell line screen, 48 h
BT-549 breast = tested on: BT-549 breast
HOP-62 NSCLC = tested on: HOP-62 NSCLC
SF-295 CNS = tested on: SF-295 CNS
A498 renal = tested on: A498 renal
PC-3 prostate = tested on: PC-3 prostate
NCI/ADR-RES ovarian = tested on: NCI/ADR-RES ovarian
KM12 colon = tested on: KM12 colon
UACC-62 melanoma = tested on: UACC-62 melanoma
SK-MEL-28 melanoma = tested on: SK-MEL-28 melanoma
OVCAR-4 ovarian = tested on: OVCAR-4 ovarian

| SMILES | GI50 (BT-549 breast) [µM] | TGI (BT-549 breast) | GI50 (HOP-62 NSCLC) [µM] | TGI (HOP-62 NSCLC) | GI50 (SF-295 CNS) [µM] | TGI (SF-295 CNS) | GI50 (A498 renal) [µM] | TGI (A498 renal) | GI50 (PC-3 prostate) [µM] | TGI (PC-3 prostate) | GI50 (NCI/ADR-RES ovarian) [µM] | TGI (NCI/ADR-RES ovarian) | GI50 (KM12 colon) [µM] | TGI (KM12 colon) | GI50 (UACC-62 melanoma) [µM] | TGI (UACC-62 melanoma) | GI50 (SK-MEL-28 melanoma) [µM] | TGI (SK-MEL-28 melanoma) | GI50 (OVCAR-4 ovarian) [µM] | TGI (OVCAR-4 ovarian) |
| --- | --- | --- | --- | --- | --- | --- | --- | --- | --- | --- | --- | --- | --- | --- | --- | --- | --- | --- | --- | --- |
| O=C1c2ccccc2-c2c1c1ccc([N+](=O)[O-])cc1c(=O)n2CCCn1ccnc1 | 0.0359 | 0.96 µM | 0.173 | 0.708 µM | 0.306 | 2.29 µM | 0.525 | 8.88 µM | 0.832 | 14.3 µM | 0.0465 | 0.366 µM | 0.0227 | 1.25 µM | 0.0116 | 0.0348 µM | 0.352 | 10.8 µM | 0.943 | 13.2 µM |
| Cc1ccc2c(c1)-c1oc(=O)c(-c3cc4ccccc4oc3=O)cc1C(O)O2 (centres undefined) | 12.7 | 25.5 µM | 22.9 | 41.4 µM | 16.3 | 38.2 µM | 16.2 | 30.3 µM | 45.2 | > 100 µM | 23.2 | 52.3 µM | 19.6 | 48.3 µM | 17.4 | 35.6 µM | 30.2 | 75.2 µM | 36.3 | > 100 µM |
| N#Cc1ccc(NC(=O)Nc2nc3ccc(OC(F)(F)F)cc3s2)cc1 | 2.78 | 9.36 µM | 2.52 | 8.12 µM | 1.18 | 4.22 µM | 0.473 | 4.41 µM | 1.36 | 12.2 µM | 1.55 | 8.39 µM | 1.02 | 6.89 µM | 0.737 | 3.87 µM | 2.31 | 12.3 µM | 1.64 | 44 µM |
| Clc1ccc(COC(Cn2ccnc2)c2ccc(Cl)cc2Cl)c(Cl)c1 (centres undefined) | 4.7 | 16 µM and 30.4 µM | 2.07 | 5.73 µM and 27.2 µM and 26.6 µM | 2.29 | 8.73 µM and 23.7 µM and 23.8 µM | – | 17.6 µM and 27.3 µM and 19.6 µM | 3.07 | 13.8 µM and 20.6 µM and 20.3 µM | 3.06 | 13.3 µM and 25.2 µM and 16 µM | 4.36 | 15.5 µM and 26.4 µM and 28.8 µM | 2.06 | 10.2 µM and 25 µM and 23.3 µM | 4.96 | 17.8 µM and 34.2 µM and 26 µM | 2.91 | 18.4 µM and 23.3 µM and 25.7 µM |
| COC1C(O)CC(OC2CC(OC3CC(O[C@@H]4C(=O)c5c(cc6cc(OC7CC(OC8CC(O)C(O)C(C)O8)C(O)C(C)O7)c(C)c(O)c6c5O)CC4[C@H](OC)[C@@H](O)C(C)=O)OC(C)C3O)OC(C)C2O)OC1C (some centres undefined) | < 0.0292 | 12.5 µM | 0.0171 | 0.154 µM | 0.00752 | > 33.3 µM | 0.0214 | 0.103 µM | 0.0243 | > 33.3 µM | > 28.2 | > 33.3 µM | 0.0124 | > 33.3 µM | 0.00977 | 0.036 µM | 0.014 | 0.396 µM | < 0.0282 | > 23.9 µM |

Reference: PubChem BioAssay (NCI)
